One experiment has as its system IL-1β production in PMA-differentiated THP-1 cells. The experiment is described as follows: IL-1β production in PMA-differentiated THP-1 cells stimulated with gramicidin (hTHP-1 assay, 2% fetal bovine serum; Procedures 1-3). In kind it is cell-based, human. To be noted: Homo sapiens, THP-1, hTHP-1 assay containing 2% fetal bovine serum, Table B2, class symbols; read-out: IC50. Put shortly:
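PMA-primed THP-1 cells (20 ng/ml PMA, 16-18 h) in RPMI with 2% FBS were pre-incubated with compounds for 1 h, from 100 μM downward in 3-fold steps (0.37% DMSO final), then stimulated with 5 μM gramicidin for 2 h. IL-1β in the supernatant was quantified by HTRF.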
On to `NS(=O)(=NC(=O)Nc1c2c(cc3c1CCC3)CCC2)c1ccc(C2CCCN2)cc1` (single isomer, unassigned) [Example 648, (R,R) or (S,R)-N′-((1,2,3,5,6,7-hexahydro-s-indacen-4-yl)carbamoyl)-4-(pyrrolidin-2-yl) benzenesulfonimidamide], for which the IC50 was 1 to 5 µM.

The experiment is the same for the next values; noted with them: Homo sapiens, THP-1, hTHP-1 assay containing 2% fetal bovine serum, Table B2, given as bound; read-out: IC50.
In the case of `CC(OC(F)F)c1ccc(S(N)(=O)=NC(=O)Nc2c3c(cc4c2CCC4)CCC3)cc1` (single isomer, unassigned) [Example 643], the IC50 was over 30 µM.
On to `CC(C)(O)c1cnc(S(N)(=O)=NC(=O)Nc2c3c(cc4c2C(O)CC4)CCC3)s1` (single isomer, unassigned) [Example 654, (S,R) or (S,S)-N′-((-3-hydroxy-1,2,3,5,6,7-hexahydro-s-indacen-4-yl)carbamoyl)-5-(2-hydroxypropan-2-yl)thiazole-2-sulfonimidamide], for which the IC50 is over 30 µM.
Same read-out and setting: the figure for `CC(C)(O)c1cnc(S(N)(=O)=NC(=O)Nc2c3c(cc4c2CCC4O)CCC3)s1` (single isomer, unassigned) [Example 655, (S,R) or (S,S)-N′-((1-hydroxy-1,2,3,5,6,7-hexahydro-5-indacen-4-yl)carbamoyl)-5-(2-hydroxypropan-2-yl)thiazole-2-sulfonimidamide] is over 30 µM.

The same experiment, now with this note: hTHP-1 assay containing 2% fetal bovine serum, Table B2, class symbols; read-out: IC50.
Take `CC(O)(CO)c1cc(F)c(S(N)(=O)=NC(=O)Nc2c3c(c(C#N)c4c2CCC4)CCC3)s1` (single isomer, unassigned) [Example 630, (R,R) or (S,R)-N′-((8-cyano-1,2,3,5,6,7-hexahydro-s-indacen-4-yl)carbamoyl)-5-(1,2-dihydroxypropan-2-yl)-3-fluorothiophene-2-sulfonimidamide]: the IC50 fell in the range of 0.008 to 0.04 µM.
Still for that read-out and setting: the value for `CC(O)(CO)c1cc(F)c(S(N)(=O)=NC(=O)Nc2c3c(c(C#N)c4c2CCC4)CCC3)s1` (single isomer, unassigned) [Example 632] was 5 to 30 µM; that for `CC(O)(CO)c1cc(F)c(S(N)(=O)=NC(=O)Nc2c3c(c(C#N)c4c2CCC4)CCC3)s1` (single isomer, unassigned) [Example 633] was 5 to 30 µM.
Turning to `CC(O)(CO)c1ncc(S(N)(=O)=NC(=O)Nc2c3c(c(C#N)c4c2CCC4)CCC3)s1` (single isomer, unassigned) [Example 634], the IC50 lay within 0.2 to 1 µM.
In the case of `CC(O)(CO)c1ncc(S(N)(=O)=NC(=O)Nc2c3c(c(C#N)c4c2CCC4)CCC3)s1` (single isomer, unassigned) [Example 636, (S,R) or (R,R)-N′-((8-cyano-1,2,3,5,6,7-hexahydro-s-indacen-4-yl)carbamoyl)-2-(1,2-dihydroxypropan-2-yl)thiazole-5-sulfonimidamide], the IC50 was 0.04 to 0.2 µM.
Consider `CC(O)(CO)c1ncc(S(N)(=O)=NC(=O)Nc2c3c(c(C#N)c4c2CCC4)CCC3)s1` (single isomer, unassigned) [Example 637, (R,R) or (S,R)-N′-((8-cyano-1,2,3,5,6,7-hexahydro-s-indacen-4-yl)carbamoyl)-2-(1,2-dihydroxypropan-2-yl)thiazole-5-sulfonimidamide], for which the IC50 was in the range of 0.2 to 1 µM.
For the compound `CC(OC(F)F)c1ccc(S(N)(=O)=NC(=O)Nc2c3c(cc4c2CCC4)CCC3)cc1` (single isomer, unassigned) [Example 638], the IC50 is 1 to 5 µM.
As to `CC(OC(F)F)c1ccc(S(N)(=O)=NC(=O)Nc2c3c(cc4c2CCC4)CCC3)cc1` (single isomer, unassigned) [Example 640], the IC50 was in the range of 1 to 5 µM.
As to `CC(OC(F)F)c1ccc(S(N)(=O)=NC(=O)Nc2c3c(cc4c2CCC4)CCC3)cc1` (single isomer, unassigned) [Example 641], the IC50 was in the range of 1 to 5 µM.
The same measure, in the same setting: the figure for `CC(OC(F)F)c1ccc(S(N)(=O)=NC(=O)Nc2c3c(cc4c2CCC4)CCC3)cc1` (single isomer, unassigned) [Example 642] is 5 to 30 µM; for `CN(C)C(c1ccc(S(N)(=O)=NC(=O)Nc2c3c(cc4c2CCC4)CCC3)cc1)C(F)F` (single isomer, unassigned) [Example 644, (R,R) or (S,R)-4-(-1-(dimethylamino)-2,2-difluoroethyl)-N′-((1,2,3,5,6,7-hexahydro-s-indacen-4-yl)carbamoyl) benzenesulfonimidamide] it is 0.2 to 1 µM; for `CN(C)C(c1ccc(S(N)(=O)=NC(=O)Nc2c3c(cc4c2CCC4)CCC3)cc1)C(F)F` (single isomer, unassigned) [Example 647, (S,R) or (R,R)-4-(1-(dimethylamino)-2,2-difluoroethyl)-N′-((1,2,3,5,6,7-hexahydro-s-indacen-4-yl)carbamoyl) benzenesulfonimidamide] it is 0.2 to 1 µM.
As to `NS(=O)(=NC(=O)Nc1c2c(cc3c1CCC3)CCC2)c1ccc(C2CCCN2)cc1` (single isomer, unassigned) [Example 650, (R,S) or (S,S)-N′-((1,2,3,5,6,7-hexahydro-s-indacen-4-yl)carbamoyl)-4-(pyrrolidin-2-yl) benzenesulfonimidamide], the half-maximal inhibitory concentration (IC50) was in the range of 5 to 30 µM.
Regarding `CC(C)(O)c1cnc(S(N)(=O)=NC(=O)Nc2c3c(cc4c2C(O)CC4)CCC3)s1` (single isomer, unassigned) [Example 651, (R,S) or (R,R)-N′-((3-hydroxy-1,2,3,5,6,7-hexahydro-s-indacen-4-yl)carbamoyl)-5-(2-hydroxypropan-2-yl)thiazole-2-sulfonimidamide], the IC50 is 1 to 5 µM.
Consider `CC(C)(O)c1cnc(S(N)(=O)=NC(=O)Nc2c3c(cc4c2C(O)CC4)CCC3)s1` (single isomer, unassigned) [Example 652, (R,R) or (R,S)-N′-((3-hydroxy-1,2,3,5,6,7-hexahydro-s-indacen-4-yl)carbamoyl)-5-(2-hydroxypropan-2-yl)thiazole-2-sulfonimidamide], for which the IC50 was in the range of 1 to 5 µM.
With `CC(C)(O)c1cnc(S(N)(=O)=NC(=O)Nc2c3c(cc4c2C(O)CC4)CCC3)s1` (single isomer, unassigned) [Example 653, (S,S) or (S,R)-N′-((3-hydroxy-1,2,3,5,6,7-hexahydro-s-indacen-4-yl)carbamoyl)-5-(2-hydroxypropan-2-yl)thiazole-2-sulfonimidamide], the IC50 is 5 to 30 µM.

Staying with this experiment, now noted: hTHP-1 assay containing 2% fetal bovine serum, Table B2, given as bound; read-out: IC50.
Regarding `CN(C)C(c1ccc(S(N)(=O)=NC(=O)Nc2c3c(cc4c2CCC4)CCC3)cc1)C(F)F` (single isomer, unassigned) [Example 645, (S,S) or (R,S)-4-(-1-(dimethylamino)-2,2-difluoroethyl)-N′-((1,2,3,5,6,7-hexahydro-s-indacen-4-yl)carbamoyl) benzenesulfonimidamide], the IC50 was over 30 µM.
Consider `CN(C)C(c1ccc(S(N)(=O)=NC(=O)Nc2c3c(cc4c2CCC4)CCC3)cc1)C(F)F` (single isomer, unassigned) [Example 646, (R,S) or (S,S)-4-(-1-(dimethylamino)-2,2-difluoroethyl)-N′-((1,2,3,5,6,7-hexahydro-s-indacen-4-yl)carbamoyl) benzenesulfonimidamide], for which the IC50 is over 30 µM.
On to `CC(C)(O)c1cnc(S(N)(=O)=NC(=O)Nc2c3c(cc4c2CCC4O)CCC3)s1` (single isomer, unassigned) [Example 656, (S,S) or (S,R)-N′-((1-hydroxy-1,2,3,5,6,7-hexahydro-5-indacen-4-yl)carbamoyl)-5-(2-hydroxypropan-2-yl)thiazole-2-sulfonimidamide], for which the IC50 is over 30 µM.

The term IC50 denotes the midpoint of a concentration-inhibition curve.
